Reference: patent publication US4966893A, “Method for treatment of senile dementia” (priority 1989, dated 1990)

What was measured:
[1] = tested on: synaptosomes from whole rat brain; experiment: release of 3H-ACh from synaptosomes under low [K] and high [K] conditions; assay type: cell-based; settings: FIG. 1
Description: Pinched off nerve endings (synaptosomes) from whole rat brain were first incubated in the presence of the precursor ^3 H-choline, which is converted intracellularly to ^3 H-ACh. The release of ACh from synaptosomes was quantitated under low [K] and high [K] conditions intended to simulate physiological stimulation.

synaptosomes = experiment: electrically stimulated 3H-acetylcholine release from perfused synaptosomes; assay type: cell-based, rat; settings: for electrically stimulated release of ACh (S2/S1 ratio): 10^-6 M drug during the last 25 minutes of perfusion, electrical field stimulation, FIGS. 2 and 3
Description: Using a different protocol, synaptosomes, which had been previously incubated with ^3 H-choline, as in the first series of experiments, were continually perfused with HEPES-buffered Krebs solution. The release of ACh was effected by subjecting the synaptosomes to electrical field stimulation, which more closely mimics physiological stimulation. […] The results obtained by calculating the ratio of the amounts of ACh released during the two periods of electrical stimulation (the areas under the curves, S2/S1) indicate that both Rb1 and Rg1 increase the electrically stimulated release. In addition, Rg1 stimulates the resting release of ^3 H-ACh, as indicated, by the increase in the resting efflux of ^3 H-ACh when the drug was first added. While the net amount of ^3 H-ACh released in each run can vary, depending on the amount of protein on the filter and aging of the synaptosomes, the S2/S1 ratio remains quite constant from run to run using a given chamber. Therefore, in each experiment the same chamber was used for both control and test-drug runs.

rat brain synaptosomes = experiment: resting and voltage dependent uptake of 45Ca into synaptosomes; assay type: cell-based; settings: compared with depolarized (52.5 K) uptake, FIG. 6
From the text: If this compound were acting as a non-specific depolarizing agent, one would predict the resting uptake of ^45 Ca would be stimulated several fold, to the same level as the depolarized (52.5 K) uptake.

Row | Compound | release of 3H-ACh [1] | electrically stimulated release of ACh (S2/S1 ratio) (synaptosomes) | resting uptake of 45Ca (rat brain synaptosomes) | resting release (resting efflux) of 3H-ACh (synaptosomes; 10^-6 M drug, when the drug was first added)
1 | CC(C)=CCC[C@](C)(O[C@@H]1O[C@H](CO[C@@H]2O[C@H](CO)[C@@H](O)[C@H](O)[C@H]2O)[C@@H](O)[C@H](O)[C@H]1O)[C@H]1CC[C@]2(C)[C@@H]1[C@H](O)C[C@@H]1[C@@]3(C)CC[C@H](O[C@@H]4O[C@H](CO)[C@@H](O)[C@H](O)[C@H]4O[C@@H]4O[C@H](CO)[C@@H](O)[C@H](O)[C@H]4O)C(C)(C)[C@@H]3CC[C@]12C [Rb1, ginsenoside Rb1] | increased | increase | only a minimal increase | –
2 | CC(C)=CCC[C@](C)(O[C@@H]1O[C@H](CO)[C@@H](O)[C@H](O)[C@H]1O)[C@H]1CC[C@]2(C)[C@@H]1[C@H](O)C[C@@H]1[C@@]3(C)CC[C@H](O)C(C)(C)[C@@H]3[C@@H](O[C@@H]3O[C@H](CO)[C@@H](O)[C@H](O)[C@H]3O)C[C@]12C [Rg1, ginsenoside Rg1] | – | increase | – | stimulates
